Data: paper PMC11514443 (Structure (London, England : 1993), 2019)
Square brackets hold non-standard residues; d marks the D form. Ends that are not written are not given here. Peptide text beside a SMILES is read from it. Lys(Me3) = C[N+](C)(C)CCCC[C@H](N)C(=O)O

Assays:
MORC3-CW [1] = target: T1, MORC3-CW (Homo sapiens, UniProt Q14149); type: binding
[2] = tested on: CW domain with W410 mutated to alanine; experiment: binding to MORC3-CW W410A mutant
[3] = tested on: CW domain with W419 mutated to alanine; experiment: binding to MORC3-CW W419A mutant
MORC3-CW E431A mutant [4] = target: MORC3-CW E431A mutant (Homo sapiens, UniProt Q14149, E431A); settings: NMR and fluorescence
MORC3-CW [5] = target: T1, MORC3-CW; type: binding; settings: pH 6.8
[6] = target: MORC3 ATPase domain ATPase (Homo sapiens) (UniProt Q14149); settings: cited from earlier work
Chain of MORC3 ATPase domain ATPase (Homo sapiens) (Q14149 1-400): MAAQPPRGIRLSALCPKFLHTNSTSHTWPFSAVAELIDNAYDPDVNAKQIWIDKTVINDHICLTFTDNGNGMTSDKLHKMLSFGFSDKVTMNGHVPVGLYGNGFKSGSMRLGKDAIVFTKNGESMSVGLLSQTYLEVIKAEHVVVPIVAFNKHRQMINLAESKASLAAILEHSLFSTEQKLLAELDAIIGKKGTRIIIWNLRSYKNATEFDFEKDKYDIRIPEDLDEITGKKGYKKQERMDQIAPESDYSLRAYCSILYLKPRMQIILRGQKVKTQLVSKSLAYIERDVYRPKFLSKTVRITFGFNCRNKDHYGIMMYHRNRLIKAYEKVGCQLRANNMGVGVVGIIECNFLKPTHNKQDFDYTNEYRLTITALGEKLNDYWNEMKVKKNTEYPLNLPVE

[7] = target: CW domain of human MORC3 (aa 401-455) (human) (UniProt Q14149); experiment: other fluorescence titration
MORC3-CW E431A mutant [8] = target: T2, MORC3-CW E431A mutant (human, UniProt Q14149 401-455, E431A); experiment: other fluorescence titration
T2 sequence (looked up): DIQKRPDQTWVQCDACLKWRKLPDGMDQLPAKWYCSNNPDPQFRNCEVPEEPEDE

T1 sequence (Q14149 401-455): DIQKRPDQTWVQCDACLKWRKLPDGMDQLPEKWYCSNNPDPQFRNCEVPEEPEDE
Chain of MORC3 CW (Q14149 404-454): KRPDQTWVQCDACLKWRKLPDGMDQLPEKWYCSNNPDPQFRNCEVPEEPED

## CSCC[C@H](N)C(=O)N[C@@H](C)C(=O)N[C@@H](CCCNC(=N)N)C(=O)N[C@H](C(=O)N[C@@H](C)C(=O)N[C@@H](CCCNC(=N)N)C(=O)N[C@@H](CO)C(=O)N[C@@H](CCCC[N+](C)(C)C)C(=O)N[C@H](C(=O)O)C(C)C)[C@@H](C)O [NS1K229me3] (H-MARTARS[Lys(Me3)]V-OH; N-terminus and C-terminus assumed)
MORC3-CW [1]
  fold increase in binding affinity vs unmodified NS1 peptide: ~ 11 fold
[2]
  binding to W410A mutant: abrogated binding
[3]
  binding to W419A mutant: abrogated binding
MORC3-CW E431A mutant [4]
  binding to E431A mutant: capable of binding
MORC3-CW [5]
  chemical shift perturbations (CSPs) in MORC3-CW: large chemical shift perturbations (CSPs)

## MORC3 CW (from UniProt Q14149)
[6]
  Kd: 9 µM

## NS1 peptide trimethylated at K229 (residues 222-230 of NS1)
[7]
  Kd: 14 µM

## unmodified NS1 peptide (residues 222-230 of NS1)
[7]
  Kd: 157 µM

## ARTK(Me3)QTARKSTG (peptide, UniProt P68431 2-13, looked up) [histone H3 peptide trimethylated at lysine 4 (residues 1-12)]
MORC3-CW E431A mutant [8]
  Kd: 0.6 µM
